From patent publication US10624881B2, “Methods for inducing apoptosis in cancer cells” (Health Research, Inc., priority 2015, dated 2020)
Read-outs that look alike come from different tables or passages of the source.

Columns and labels:
NALM6 = assay: Cell proliferation assay, NALM6 cells; assay type: cell-based; conditions: 72 h, read-out: IC50 of Compounds, NALM6
NALM6 cells = assay: Flow cytometry of sub-G1 population in NALM6 cells (PI staining); assay type: cell-based
From the text: Sub-G1 fractions of each treatment were shown.
Proliferation and apoptosis assays.

[1] = system: p53 pathway in HCT8 cells; conditions: Western blot, time- and concentration-dependent
[2] = system: p53 pathway in NALM6 cells
Mdm2-MdmX E3 ligase = molecular target: T1, Mdm2-MdmX E3 ligase (Homo sapiens, UniProt O15151); assay: In vitro MdmX-stimulated Mdm2 autoubiquitination (Western blot); assay type: biochemical; conditions: compound 10 μM
T1 construct: FLAG; made in house; host or cells: insect cells (baculovirus)
T1 sequence (O15151 1-490): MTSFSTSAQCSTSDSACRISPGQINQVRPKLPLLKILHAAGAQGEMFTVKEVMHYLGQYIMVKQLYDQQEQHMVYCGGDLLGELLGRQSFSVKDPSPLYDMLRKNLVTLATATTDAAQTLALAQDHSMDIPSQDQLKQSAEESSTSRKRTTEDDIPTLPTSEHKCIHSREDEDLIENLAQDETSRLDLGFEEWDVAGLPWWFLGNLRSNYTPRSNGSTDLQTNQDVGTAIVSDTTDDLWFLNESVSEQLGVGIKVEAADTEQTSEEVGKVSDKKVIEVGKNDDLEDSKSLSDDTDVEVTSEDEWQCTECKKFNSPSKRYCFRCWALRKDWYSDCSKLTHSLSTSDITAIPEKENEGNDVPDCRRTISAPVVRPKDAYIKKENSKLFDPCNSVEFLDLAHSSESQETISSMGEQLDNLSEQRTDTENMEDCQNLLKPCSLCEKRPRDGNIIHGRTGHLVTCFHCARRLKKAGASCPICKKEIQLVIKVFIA
From the text: (§1) Materials and Methods. Plasmids, Protein Purification, and Chemical Reagents. FLAG-MdmX and HA-Mdm2 (human) constructs for insect cell expression and protein purification were described previously. HA-ubiquitin construct was generated by inserting HA-tag to the N-terminus of ubiquitin in pET28a vector. The mammalian expression plasmid pcDNA3.1-HdmX was a gift from Dr. Gokul Das (Roswell Park Cancer Institute).
In vitro validation assays by Mdm2 autoubiquitination and p53 ubiquitination by Mdm2-MdmX and NEDD4-1 autoubiquitination. In order to test the compound specificity, we used two sets of ubiquitination reaction. One is MdmX stimulated Mdm2 autoubiquitination, the other is NEDD4-1 autoubiquitination. […] The former reaction includes 100 nM HA-tagged Mdm2 and 200 nM MdmX, and latter reaction includes 200 nM HA-tagged NEDD4-1. After adding compound to final concentration of 10 μM, the reaction was started by incubation at 30° C. in a water bath for one hour. Then the reaction was stopped by adding SDS sample buffer, followed by SDS-PAGE and Western blot analysis for HA or NEDD4-1. In vitro assays for p53 ubiquitination by Mdm2-MdmX were performed as described previously. Briefly, reactions were carried out as described above for Mdm2 autoubiquitination except for addition of 100 nM p53. Compounds or DMSO of final concentrations of 10 μM were added in the reaction before starting the reaction at 30° C. for 1 h followed by WB of p53 with DO-1 antibody.

Mdm2 RING domain = molecular target: T2, Mdm2 RING domain (Homo sapiens, UniProt Q00987, DEL223-299); assay: In vitro autoubiquitination of Mdm2 RING domain (RING-RING homo-dimers); assay type: biochemical; conditions: compound 10 μM, Western blot
T2 construct: made in house; host or cells: insect cells (recombinant baculovirus)
Experimental: In vitro ubiquitination assays were performed with Mdm2 (100 nM) and MdmX (200 nM) in the presence of nothing (C), DMSO (10 μM) or indicated compounds (10 μM), followed by WB of Mdm2 with anti-HA antibody. […] In vitro ubiquitination assays were performed with Mdm2-RING domain (100 nM) in the presence of nothing (C), DMSO (10 μM) or indicated compounds (10 μM), followed by WB of Mdm2 with anti-HA. […] FLAG-MdmX and HA-Mdm2-RING domain (HA-Mdm2R) were incubated in vitro in the presence of nothing (positive control), or DMSO (10 μM) or indicated compounds (10 μM), followed by pulldown with anti-FLAG-beads (M2) and WB of MdmX and Mdm2-RING domain with anti-FLAG and anti-HA antibodies respectively. The negative control (Neg) contains all components as in positive control sample except for missing of FLAG-MdmX.
To directly evaluate the ability of these compounds in inhibiting Mdm2-MdmX interaction, we performed in vitro pulldown experiments using recombinant FLAG-MdmX and HA-Mdm2RING proteins. After incubation of the two proteins in test tubes in the presence or absence of test compounds for 30 min at RT, FLAG-MdmX was pulled down with anti-FLAG beads followed by detection of MdmX-bound HA-Mdm2RING domain by Western blotting for HA-tag.
as §1

RL4RH cells = assay: RRCL proliferation assay, drug-resistant lymphoma RL4RH cells; assay type: cell-based; conditions: for IC50: 3-day treatment
Raji4RH cells = assay: RRCL proliferation assay, drug-resistant lymphoma Raji4RH cells; assay type: cell-based; conditions: for IC50: 3-day treatment
mouse bone marrow cells = conditions: for IC50: read-out: IC50, CFU-GM, mouse bone marrow cells, 7-day continuous treatment
Experimental: For the bone marrow toxicity assay, the following method was used. 400 μL of murine marrow mononuclear cells (2.0×10^5/mL) in IMDM containing 20% FBS, 10 units/mL recombinant murine GM-CSF, 10% of a 10× drug solution or control solution (DMSO), and 0.3% agarose were pipetted into microwells containing a 0.4-mL underlayer of IMDM and 0.3% agarose. The cultures were allowed to gel at 4° C. for 15 min and incubated at 37° C. in a fully humidified atmosphere of 5% CO2 in air for 7 days. CFU-GM colonies (aggregates of ≥40 cells) were counted with an inverted microscope using phase contrast. Percent survivals were calculated as 100× (the number of colonies in the drug-treated groups divided by the number of colonies in the vehicle control-treated group). IC50 values were determined.

NALM6-shp53 cells = assay: Apoptosis markers in NALM6-shp53 cells (Western blot); assay type: cell-based; conditions: NALM6-shp53 versus NALM6, 24 h
From the text: Actin was the loading control.

NALM6-shp53 = assay: Cell proliferation assay, NALM6-shp53 cells (p53 shRNA knockdown); assay type: cell-based
Experimental: Proliferation and apoptosis assays. Growth inhibition assays and apoptosis assays were carried out as described previously.

T2 sequence (Q00987 with tags, fused parts or gaps isoform Q00987-2 DEL28-104): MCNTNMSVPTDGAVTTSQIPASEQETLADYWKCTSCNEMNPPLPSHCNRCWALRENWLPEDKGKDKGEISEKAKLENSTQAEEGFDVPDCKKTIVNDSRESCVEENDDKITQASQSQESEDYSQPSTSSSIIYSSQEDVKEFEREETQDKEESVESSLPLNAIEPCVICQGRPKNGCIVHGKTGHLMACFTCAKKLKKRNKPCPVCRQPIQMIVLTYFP

Compound: COc1ccc(C2=N[C@@H](c3ccc(Cl)cc3)[C@@H](c3ccc(Cl)cc3)N2C(=O)N2CCNC(=O)C2)c(OC(C)C)c1 [Nutlin3a, reference compound]
- IC50 (NALM6): 1270 nM
- sub-G1 population (NALM6 cells; 0.5 μM, 48 h): 0.4%
- sub-G1 population (NALM6 cells; 1 μM, 48 h): 0.8%
- sub-G1 population (NALM6 cells; 2 μM, 48 h): 3.0%
- sub-G1 population (NALM6 cells; 2 μM, single treatment, combination experiment): 1.3%
- effect on MdmX level in HCT8 cells [1]: not obvious
- PUMA induction in NALM6 cells ([2]; 1 μM, time course): stronger p53 accumulation and PUMA induction than MMRi64
- p21 induction in NALM6 cells ([2]; 1 μM, time course to 24 h): strong induction of growth-arresting effector p21
- effect on Mdm2 expression in NALM6 cells ([2]; Western blot): strong induction of Mdm2 protein
- effect on MdmX levels in NALM6 cells ([2]; Western blot): slightly decreased MdmX levels

Compound: Oc1c(C(Nc2ccccn2)c2ccccc2Br)cc(Cl)c2cccnc12 (stereo not shown) [MMRi65]
- inhibition of Mdm2 autoubiquitination stimulated by MdmX (Mdm2-MdmX E3 ligase): inhibit
- inhibition of autoubiquitination of Mdm2 RING domain (RING-RING homo-dimers) (Mdm2 RING domain): do not inhibit

Compound: Oc1c(C(Nc2ccccn2)c2cccc(Br)c2)cc(Cl)c2cccnc12 (stereo not shown) [MMRi63]
- inhibition of Mdm2 autoubiquitination stimulated by MdmX (Mdm2-MdmX E3 ligase): inhibit
- inhibition of autoubiquitination of Mdm2 RING domain (RING-RING homo-dimers) (Mdm2 RING domain): do not inhibit

Compound: Cc1ccnc(NC(c2cccc(Cl)c2Cl)c2ccc3cccnc3c2O)c1 (stereo not shown) [MMRi64]
- IC50 (NALM6): 145 nM
- IC50 (RL4RH cells): 1 µM
- IC50 (Raji4RH cells): 0.18 µM
- IC50 (mouse bone marrow cells): 1.6 µM
- sub-G1 population (NALM6 cells; 0.2 μM, single treatment, combination experiment): 0.73%
- sub-G1 population (NALM6 cells; 0.4 μM, single treatment, combination experiment): 2.5%
- sub-G1 population (NALM6 cells; 0.5 μM, 48 h): 7.3%
- sub-G1 population (NALM6 cells; 1 μM, 48 h): 20%
- effect of shRNA knockdown of p53 on apoptosis induction (NALM6-shp53 cells): did not affect apoptosis induction

Compound: Oc1c(C(Nc2ccccn2)c2ccc(Cl)c(Cl)c2)ccc2cccnc12 (stereo not shown) [MMRi61]
- inhibition of Mdm2 autoubiquitination stimulated by MdmX (Mdm2-MdmX E3 ligase): inhibit
- inhibition of autoubiquitination of Mdm2 RING domain (RING-RING homo-dimers) (Mdm2 RING domain): do not inhibit

Compound: Oc1c(C(Nc2ccccn2)c2cccc(Cl)c2Cl)ccc2cccnc12 (stereo not shown) [MMRi62]
- inhibition of Mdm2 autoubiquitination stimulated by MdmX (Mdm2-MdmX E3 ligase): inhibit
- inhibition of autoubiquitination of Mdm2 RING domain (RING-RING homo-dimers) (Mdm2 RING domain): do not inhibit

Compound: COc1cc([C@@H]2c3cc4c(cc3[C@@H](O[C@@H]3O[C@@H]5CO[C@@H](C)O[C@H]5[C@H](O)[C@H]3O)[C@H]3COC(=O)[C@H]23)OCO4)cc(OC)c1O [Etoposide, etoposide]
- IC50 (NALM6; listed as marked (nM)): 2.23 nM
- IC50 (NALM6-shp53; 72 h, listed as marked (nM), read-out: IC50 of Compounds, NALM6-shp53): 19.9 nM
- Fold change (NALM6-shp53; IC50 NALM6-shp53 versus NALM6, 72 h): 9x
- IC50 (RL4RH cells): 6.3 µM
- TW BM/CC, RL4RH (RL4RH cells; therapeutic window, CFU-GM IC50 versus RL4RH IC50): −19x
- IC50 (Raji4RH cells): 1.7 µM
- TW BM/CC, Raji4RH (Raji4RH cells; therapeutic window, CFU-GM IC50 versus Raji4RH IC50): −5x
- fold more toxic to normal mouse bone marrow cells (mouse bone marrow cells): 5 fold
- fold more toxic to normal mouse bone marrow cells relative to RRCLs (mouse bone marrow cells): 5-20 fold
- IC50 (mouse bone marrow cells): 0.32 µM
